Experimental data taken from the kinase profiling compilation of Christmann-Franck et al. (2016).
“And” between values parts separate entries of the source, which are not always exact repeats. Identical values can stand only once.

Experiments:
Test in all cases: KINOMEscan competition binding
Details in all cases: compound 10.0 µM
[1] = molecular target: BMPR1B (human) (UniProt O00238)
[2] = test system: BMX (human), P51813 [V600E]
[3] = molecular target: CAMK1D (human) (UniProt Q8IU85)
[4] = molecular target: CAMK2A (human) (UniProt Q9UQM7)
[5] = molecular target: CDK14 (human) (UniProt O94921)
[6] = molecular target: CDK4 CCND3 (human) (UniProt P11802+P30281)
[7] = molecular target: CHEK2 (human) (UniProt O96017)
[8] = molecular target: CLK2 (human) (UniProt P49760)
[9] = molecular target: CSNK1G3 (human) (UniProt Q9Y6M4)
[10] = molecular target: DAPK3 (human) (UniProt O43293)
[11] = molecular target: DCLK2 (human) (UniProt Q8N568)
[12] = test system: EGFR (human), P00533 [A750P; 747-749 del]
[13] = molecular target: EIF2AK2 (human) (UniProt P19525)
[14] = molecular target: EPHB2 (human) (UniProt P29323)
[15] = molecular target: ERBB3 (human) (UniProt P21860)
[16] = molecular target: FGFR3 (human) (UniProt P22607)
[17] = molecular target: FLT3 (human) (UniProt P36888)
[18] = molecular target: HUNK (human) (UniProt P57058)
[19] = molecular target: IGF1R (human) (UniProt P08069)
[20] = molecular target: LCK (human) (UniProt P06239)
[21] = test system: LRRK2 (human), Q5S007 [G2019S]
[22] = molecular target: MAP2K5 (human) (UniProt Q13163)
[23] = molecular target: MAP3K9 (human) (UniProt P80192)
[24] = molecular target: MAPK10 (human) (UniProt P53779)
[25] = molecular target: MAPK11 (human) (UniProt Q15759)
[26] = molecular target: MAPK15 (human) (UniProt Q8TD08)
[27] = molecular target: MTOR (human) (UniProt P42345)
[28] = molecular target: PHKG1 (human) (UniProt Q16816)
[29] = molecular target: PIP5K1A (human) (UniProt Q99755)
[30] = molecular target: PLK1 (human) (UniProt P53350)
[31] = molecular target: PRKAA2 (human) (UniProt P54646)
[32] = molecular target: PRKCI (human) (UniProt P41743)
[33] = molecular target: PRKG1 (human) (UniProt Q13976)
[34] = molecular target: RAF1 (human) (UniProt P04049)
[35] = molecular target: RIOK1 (human) (UniProt Q9BRS2)
[36] = molecular target: RPS6KA2 KD1 (human) (UniProt Q15349)
[37] = molecular target: STK11 (human) (UniProt Q15831)
[38] = molecular target: TYK2 JH1 catalytic (human) (UniProt P29597)
[39] = molecular target: TYRO3 (human) (UniProt Q06418)
[40] = molecular target: YSK4 (human) (UniProt Q56UN5)

Chain of MAP3K9 (human) (P80192 whole entry, looked up): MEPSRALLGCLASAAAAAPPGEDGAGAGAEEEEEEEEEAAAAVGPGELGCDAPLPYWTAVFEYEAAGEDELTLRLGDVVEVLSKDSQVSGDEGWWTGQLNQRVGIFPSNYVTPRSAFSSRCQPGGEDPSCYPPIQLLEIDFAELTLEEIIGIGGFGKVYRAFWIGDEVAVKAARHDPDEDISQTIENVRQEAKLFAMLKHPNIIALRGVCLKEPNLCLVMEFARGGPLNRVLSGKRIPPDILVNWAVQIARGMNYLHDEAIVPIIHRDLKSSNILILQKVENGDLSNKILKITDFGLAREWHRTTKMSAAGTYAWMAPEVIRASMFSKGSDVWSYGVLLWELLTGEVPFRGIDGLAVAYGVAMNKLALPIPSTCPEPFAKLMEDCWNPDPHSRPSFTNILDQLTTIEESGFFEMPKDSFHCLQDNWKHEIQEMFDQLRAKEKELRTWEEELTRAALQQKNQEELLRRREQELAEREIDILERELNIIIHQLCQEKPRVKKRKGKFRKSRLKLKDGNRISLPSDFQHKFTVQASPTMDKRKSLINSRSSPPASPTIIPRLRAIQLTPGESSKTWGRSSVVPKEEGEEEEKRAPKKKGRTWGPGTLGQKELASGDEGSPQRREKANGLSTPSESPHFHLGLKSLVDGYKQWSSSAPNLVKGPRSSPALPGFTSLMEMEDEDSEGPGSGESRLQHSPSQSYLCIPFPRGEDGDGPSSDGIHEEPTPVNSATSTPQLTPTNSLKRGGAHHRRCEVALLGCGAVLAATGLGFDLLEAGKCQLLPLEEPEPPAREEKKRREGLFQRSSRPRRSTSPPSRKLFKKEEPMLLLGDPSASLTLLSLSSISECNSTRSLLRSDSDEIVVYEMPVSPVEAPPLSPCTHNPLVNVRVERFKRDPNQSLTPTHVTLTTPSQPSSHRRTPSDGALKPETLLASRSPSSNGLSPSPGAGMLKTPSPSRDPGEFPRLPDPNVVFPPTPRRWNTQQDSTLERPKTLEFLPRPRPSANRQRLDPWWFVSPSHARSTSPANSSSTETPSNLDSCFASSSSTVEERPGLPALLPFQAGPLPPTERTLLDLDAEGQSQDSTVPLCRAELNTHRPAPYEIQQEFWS
Chain of MAP2K5 (human) (Q13163 whole entry, looked up): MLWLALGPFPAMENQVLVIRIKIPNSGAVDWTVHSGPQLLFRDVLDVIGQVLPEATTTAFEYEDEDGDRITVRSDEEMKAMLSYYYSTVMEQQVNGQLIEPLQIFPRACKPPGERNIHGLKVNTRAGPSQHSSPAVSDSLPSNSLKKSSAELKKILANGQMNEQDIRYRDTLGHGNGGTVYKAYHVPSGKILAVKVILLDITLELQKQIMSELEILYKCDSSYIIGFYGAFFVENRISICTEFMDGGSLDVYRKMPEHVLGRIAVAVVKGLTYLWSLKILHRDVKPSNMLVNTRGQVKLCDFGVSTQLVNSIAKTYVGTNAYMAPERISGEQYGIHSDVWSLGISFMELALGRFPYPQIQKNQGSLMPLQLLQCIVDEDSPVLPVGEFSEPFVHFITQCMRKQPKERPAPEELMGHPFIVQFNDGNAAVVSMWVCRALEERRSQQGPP
Chain of LCK (human) (P06239 whole entry, looked up): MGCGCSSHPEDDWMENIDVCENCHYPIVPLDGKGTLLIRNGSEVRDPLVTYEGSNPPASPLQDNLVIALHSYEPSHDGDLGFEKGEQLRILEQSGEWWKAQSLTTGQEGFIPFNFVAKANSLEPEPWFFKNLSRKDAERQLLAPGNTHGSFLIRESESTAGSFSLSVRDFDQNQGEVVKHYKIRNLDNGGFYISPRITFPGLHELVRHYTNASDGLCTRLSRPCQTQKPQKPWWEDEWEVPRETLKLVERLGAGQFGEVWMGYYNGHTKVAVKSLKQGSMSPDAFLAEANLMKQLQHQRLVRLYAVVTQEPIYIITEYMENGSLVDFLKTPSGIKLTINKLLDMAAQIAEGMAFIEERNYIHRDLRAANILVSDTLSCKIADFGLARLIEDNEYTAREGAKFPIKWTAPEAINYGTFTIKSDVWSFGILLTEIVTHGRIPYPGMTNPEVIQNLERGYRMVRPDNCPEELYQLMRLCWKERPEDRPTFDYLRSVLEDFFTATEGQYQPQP
Chain of RIOK1 (human) (Q9BRS2 whole entry, looked up): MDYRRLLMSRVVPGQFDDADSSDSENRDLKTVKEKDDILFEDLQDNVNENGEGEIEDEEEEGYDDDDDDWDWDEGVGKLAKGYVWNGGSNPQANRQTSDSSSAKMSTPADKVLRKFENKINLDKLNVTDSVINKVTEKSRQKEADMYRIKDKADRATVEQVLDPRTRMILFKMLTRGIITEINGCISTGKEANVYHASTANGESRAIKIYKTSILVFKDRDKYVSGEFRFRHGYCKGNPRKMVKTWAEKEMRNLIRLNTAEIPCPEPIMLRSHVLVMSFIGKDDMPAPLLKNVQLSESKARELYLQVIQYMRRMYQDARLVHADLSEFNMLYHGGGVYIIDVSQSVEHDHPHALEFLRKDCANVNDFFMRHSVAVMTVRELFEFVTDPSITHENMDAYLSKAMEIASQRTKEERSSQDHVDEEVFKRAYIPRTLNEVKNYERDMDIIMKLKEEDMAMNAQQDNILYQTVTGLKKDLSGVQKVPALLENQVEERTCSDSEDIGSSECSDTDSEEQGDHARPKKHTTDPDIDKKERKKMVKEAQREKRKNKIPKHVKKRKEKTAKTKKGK
Chain of PLK1 (human) (P53350 whole entry, looked up): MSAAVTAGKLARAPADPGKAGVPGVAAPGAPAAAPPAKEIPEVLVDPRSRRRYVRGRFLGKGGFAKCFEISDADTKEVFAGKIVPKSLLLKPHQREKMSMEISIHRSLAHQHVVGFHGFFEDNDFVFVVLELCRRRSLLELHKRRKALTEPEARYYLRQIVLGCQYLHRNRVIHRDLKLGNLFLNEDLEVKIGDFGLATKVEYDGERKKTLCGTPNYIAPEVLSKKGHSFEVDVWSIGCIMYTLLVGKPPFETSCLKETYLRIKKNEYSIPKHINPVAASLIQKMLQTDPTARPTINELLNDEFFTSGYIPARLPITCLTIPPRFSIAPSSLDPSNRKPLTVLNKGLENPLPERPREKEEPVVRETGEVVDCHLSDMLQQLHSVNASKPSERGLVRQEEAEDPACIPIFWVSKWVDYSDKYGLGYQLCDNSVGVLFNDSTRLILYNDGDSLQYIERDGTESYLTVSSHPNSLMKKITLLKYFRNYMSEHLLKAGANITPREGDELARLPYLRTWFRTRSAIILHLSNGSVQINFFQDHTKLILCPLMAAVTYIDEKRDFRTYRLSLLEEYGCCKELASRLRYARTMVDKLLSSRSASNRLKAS
Chain of PHKG1 (human) (Q16816 whole entry, looked up): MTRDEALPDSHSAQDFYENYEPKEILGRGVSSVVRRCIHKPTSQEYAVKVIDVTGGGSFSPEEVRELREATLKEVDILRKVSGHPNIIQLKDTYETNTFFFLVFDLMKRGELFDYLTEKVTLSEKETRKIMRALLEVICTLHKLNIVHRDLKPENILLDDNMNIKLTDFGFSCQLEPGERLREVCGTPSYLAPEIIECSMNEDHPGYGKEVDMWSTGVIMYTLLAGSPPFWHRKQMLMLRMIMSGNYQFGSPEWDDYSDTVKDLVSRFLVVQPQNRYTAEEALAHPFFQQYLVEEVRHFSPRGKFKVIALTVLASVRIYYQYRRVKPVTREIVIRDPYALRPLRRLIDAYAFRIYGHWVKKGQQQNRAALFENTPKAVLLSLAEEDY
Chain of STK11 (human) (Q15831 whole entry, looked up): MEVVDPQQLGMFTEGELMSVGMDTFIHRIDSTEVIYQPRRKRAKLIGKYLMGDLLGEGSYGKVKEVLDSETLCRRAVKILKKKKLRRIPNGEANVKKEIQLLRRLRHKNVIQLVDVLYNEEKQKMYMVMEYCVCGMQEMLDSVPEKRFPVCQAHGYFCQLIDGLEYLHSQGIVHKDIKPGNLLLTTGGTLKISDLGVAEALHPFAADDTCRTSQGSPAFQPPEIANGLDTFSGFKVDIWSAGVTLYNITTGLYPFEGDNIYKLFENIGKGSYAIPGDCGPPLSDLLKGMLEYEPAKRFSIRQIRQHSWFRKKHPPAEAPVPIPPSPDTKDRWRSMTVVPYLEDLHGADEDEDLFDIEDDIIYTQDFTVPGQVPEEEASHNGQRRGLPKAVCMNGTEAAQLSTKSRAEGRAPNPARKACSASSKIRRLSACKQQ
Chain of CHEK2 (human) (O96017 whole entry, looked up): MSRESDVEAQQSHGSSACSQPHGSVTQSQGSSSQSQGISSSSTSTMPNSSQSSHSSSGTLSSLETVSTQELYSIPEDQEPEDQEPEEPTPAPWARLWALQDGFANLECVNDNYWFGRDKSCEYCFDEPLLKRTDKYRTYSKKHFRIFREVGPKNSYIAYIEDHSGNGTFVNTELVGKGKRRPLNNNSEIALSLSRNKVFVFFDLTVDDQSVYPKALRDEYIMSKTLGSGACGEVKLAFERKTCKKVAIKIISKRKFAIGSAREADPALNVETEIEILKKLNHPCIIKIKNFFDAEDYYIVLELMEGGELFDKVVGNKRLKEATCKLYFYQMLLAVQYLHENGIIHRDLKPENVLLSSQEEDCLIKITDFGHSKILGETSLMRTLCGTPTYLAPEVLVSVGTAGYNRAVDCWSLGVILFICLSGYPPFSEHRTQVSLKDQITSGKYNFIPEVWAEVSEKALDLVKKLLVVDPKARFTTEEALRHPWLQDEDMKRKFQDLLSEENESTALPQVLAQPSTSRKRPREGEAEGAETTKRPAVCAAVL
Chain of MAPK11 (human) (Q15759 whole entry, looked up): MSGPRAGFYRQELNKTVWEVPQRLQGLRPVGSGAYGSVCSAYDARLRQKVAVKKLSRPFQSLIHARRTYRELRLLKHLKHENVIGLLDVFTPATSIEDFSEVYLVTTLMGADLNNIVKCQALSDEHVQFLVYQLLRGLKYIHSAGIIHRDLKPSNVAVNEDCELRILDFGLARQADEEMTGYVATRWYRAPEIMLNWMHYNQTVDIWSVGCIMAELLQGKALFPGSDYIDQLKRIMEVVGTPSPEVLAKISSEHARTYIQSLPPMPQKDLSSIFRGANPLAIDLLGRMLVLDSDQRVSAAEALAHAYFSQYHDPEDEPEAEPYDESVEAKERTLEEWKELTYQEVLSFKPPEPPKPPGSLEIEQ

## CCCS(=O)(=O)Nc1ccc(F)c(C(=O)c2c[nH]c3ncc(Cl)cc23)c1F
[1]
  kinase still bound, per cent of control: 74%
[2]
  kinase still bound, per cent of control: 0%
[3]
  kinase still bound, per cent of control: 78%
[4]
  kinase still bound, per cent of control: 84%
[5]
  kinase still bound, per cent of control: 100%
[6]
  kinase still bound, per cent of control: 70%
[7]
  kinase still bound, per cent of control: 64%
[8]
  kinase still bound, per cent of control: 10%
[9]
  kinase still bound, per cent of control: 79%
[10]
  kinase still bound, per cent of control: 85%
[11]
  kinase still bound, per cent of control: 61%
[12]
  kinase still bound, per cent of control: 77%
[13]
  kinase still bound, per cent of control: 74%
[14]
  kinase still bound, per cent of control: 100%
[15]
  kinase still bound, per cent of control: 28%
[16]
  kinase still bound, per cent of control: 71%
[17]
  kinase still bound, per cent of control: 14%
[18]
  kinase still bound, per cent of control: 24%
[19]
  kinase still bound, per cent of control: 91%
[20]
  kinase still bound, per cent of control: 3.2%
[21]
  kinase still bound, per cent of control: 38%
[22]
  kinase still bound, per cent of control: 0.15%
[23]
  kinase still bound, per cent of control: 94%
[24]
  kinase still bound, per cent of control: 90%
[25]
  kinase still bound, per cent of control: 100%
[26]
  kinase still bound, per cent of control: 97%
[27]
  kinase still bound, per cent of control: 58%
[28]
  kinase still bound, per cent of control: 100%
[29]
  kinase still bound, per cent of control: 100%
[30]
  kinase still bound, per cent of control: 100%
[31]
  kinase still bound, per cent of control: 46%
[32]
  kinase still bound, per cent of control: 100%
[33]
  kinase still bound, per cent of control: 100%
[34]
  kinase still bound, per cent of control: 3.4%
[35]
  kinase still bound, per cent of control: 100%
[36]
  kinase still bound, per cent of control: 67%
[37]
  kinase still bound, per cent of control: 79%
[38]
  kinase still bound, per cent of control: 24%
[39]
  kinase still bound, per cent of control: 100%
[40]
  kinase still bound, per cent of control: 29%

## CNC(=O)Nc1ccc(-c2nc(N3CC4CCC(C3)O4)c3cnn(C4CCC5(CC4)OCCO5)c3n2)cc1
[1]
  kinase still bound, per cent of control: 83%
[2]
  kinase still bound, per cent of control: 100%
[3]
  kinase still bound, per cent of control: 95%
[4]
  kinase still bound, per cent of control: 100%
[5]
  kinase still bound, per cent of control: 94%
[6]
  kinase still bound, per cent of control: 92%
[7]
  kinase still bound, per cent of control: 84%
[8]
  kinase still bound, per cent of control: 98%
[9]
  kinase still bound, per cent of control: 48%
[10]
  kinase still bound, per cent of control: 100%
[11]
  kinase still bound, per cent of control: 97%
[12]
  kinase still bound, per cent of control: 52%
[13]
  kinase still bound, per cent of control: 100%
[14]
  kinase still bound, per cent of control: 78%
[15]
  kinase still bound, per cent of control: 100%
[16]
  kinase still bound, per cent of control: 83%
[17]
  kinase still bound, per cent of control: 75% and 77%
[18]
  kinase still bound, per cent of control: 100%
[19]
  kinase still bound, per cent of control: 93%
[20]
  kinase still bound, per cent of control: 100%
[21]
  kinase still bound, per cent of control: 65%
[22]
  kinase still bound, per cent of control: 93%
[23]
  kinase still bound, per cent of control: 97%
[24]
  kinase still bound, per cent of control: 86%
[25]
  kinase still bound, per cent of control: 100%
[26]
  kinase still bound, per cent of control: 25%
[27]
  kinase still bound, per cent of control: 5.7%
[28]
  kinase still bound, per cent of control: 100%
[29]
  kinase still bound, per cent of control: 84%
[30]
  kinase still bound, per cent of control: 77%
[31]
  kinase still bound, per cent of control: 93%
[32]
  kinase still bound, per cent of control: 67%
[33]
  kinase still bound, per cent of control: 100%
[34]
  kinase still bound, per cent of control: 100%
[35]
  kinase still bound, per cent of control: 91%
[36]
  kinase still bound, per cent of control: 100%
[37]
  kinase still bound, per cent of control: 80%
[38]
  kinase still bound, per cent of control: 100%
[39]
  kinase still bound, per cent of control: 100%
[40]
  kinase still bound, per cent of control: 100%

## CC1=C(C(=O)Nc2cc3cn[nH]c3cc2F)C(c2ccc(C(F)(F)F)cc2)CC(=O)N1 (stereo not given)
[1]
  kinase still bound, per cent of control: 65%
[2]
  kinase still bound, per cent of control: 87%
[3]
  kinase still bound, per cent of control: 97%
[4]
  kinase still bound, per cent of control: 100%
[5]
  kinase still bound, per cent of control: 89%
[6]
  kinase still bound, per cent of control: 77%
[7]
  kinase still bound, per cent of control: 78%
[8]
  kinase still bound, per cent of control: 54%
[9]
  kinase still bound, per cent of control: 90%
[10]
  kinase still bound, per cent of control: 77%
[11]
  kinase still bound, per cent of control: 87%
[12]
  kinase still bound, per cent of control: 36%
[13]
  kinase still bound, per cent of control: 76%
[14]
  kinase still bound, per cent of control: 100%
[15]
  kinase still bound, per cent of control: 92%
[16]
  kinase still bound, per cent of control: 81%
[17]
  kinase still bound, per cent of control: 100%
[18]
  kinase still bound, per cent of control: 100%
[19]
  kinase still bound, per cent of control: 98%
[20]
  kinase still bound, per cent of control: 30%
[21]
  kinase still bound, per cent of control: 70%
[22]
  kinase still bound, per cent of control: 71%
[23]
  kinase still bound, per cent of control: 93%
[24]
  kinase still bound, per cent of control: 88%
[25]
  kinase still bound, per cent of control: 92%
[26]
  kinase still bound, per cent of control: 80%
[27]
  kinase still bound, per cent of control: 89%
[28]
  kinase still bound, per cent of control: 100%
[29]
  kinase still bound, per cent of control: 89%
[30]
  kinase still bound, per cent of control: 96%
[31]
  kinase still bound, per cent of control: 25%
[32]
  kinase still bound, per cent of control: 72%
[33]
  kinase still bound, per cent of control: 15%
[34]
  kinase still bound, per cent of control: 100%
[35]
  kinase still bound, per cent of control: 100%
[36]
  kinase still bound, per cent of control: 95%
[37]
  kinase still bound, per cent of control: 100%
[38]
  kinase still bound, per cent of control: 20%
[39]
  kinase still bound, per cent of control: 100%
[40]
  kinase still bound, per cent of control: 50%
